{
  "source": "ChEMBL document CHEMBL1147633",
  "about": "“Structure-activity relationships of a novel class of endothelin receptor selective antagonists; 6-carboxy-2-isopropylamino-5,7-diarylcyclopenteno[1,2-b]pyridines” (Bioorg Med Chem Lett, 2004)",
  "key": {"[1]": {"experiment": "Bioavailability in rat (dose 1 mg/kg i.v.)", "format": "ADME, organism-based", "conditions": "in vivo, iv"}, "[2]": {"experiment": "Bioavailability in rat (dose 3 mg/kg p.o.)", "format": "ADME, organism-based", "conditions": "in vivo, po"}, "[3]": {"target": "T1, Endothelin receptor type B (Homo sapiens, UniProt P24530)", "T1 sequence (P24530 whole entry)": "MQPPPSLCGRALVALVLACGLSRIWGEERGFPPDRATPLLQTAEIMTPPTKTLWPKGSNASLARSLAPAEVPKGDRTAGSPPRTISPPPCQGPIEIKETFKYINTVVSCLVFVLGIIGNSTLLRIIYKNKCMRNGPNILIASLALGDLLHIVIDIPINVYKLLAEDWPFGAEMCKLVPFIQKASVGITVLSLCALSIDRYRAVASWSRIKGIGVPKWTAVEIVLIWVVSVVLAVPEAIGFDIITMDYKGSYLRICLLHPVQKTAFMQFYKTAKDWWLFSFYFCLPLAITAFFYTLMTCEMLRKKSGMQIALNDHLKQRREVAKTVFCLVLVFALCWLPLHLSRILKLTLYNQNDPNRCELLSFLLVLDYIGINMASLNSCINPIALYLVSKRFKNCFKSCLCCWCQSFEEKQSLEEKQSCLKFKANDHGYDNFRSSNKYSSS", "experiment": "Inhibitory activity against [125I]ET1 binding to human endothelin B receptor"}, "Endothelin-1 receptor": {"target": "T2, Endothelin-1 receptor (Homo sapiens, UniProt P25101)", "T2 sequence (P25101 whole entry)": "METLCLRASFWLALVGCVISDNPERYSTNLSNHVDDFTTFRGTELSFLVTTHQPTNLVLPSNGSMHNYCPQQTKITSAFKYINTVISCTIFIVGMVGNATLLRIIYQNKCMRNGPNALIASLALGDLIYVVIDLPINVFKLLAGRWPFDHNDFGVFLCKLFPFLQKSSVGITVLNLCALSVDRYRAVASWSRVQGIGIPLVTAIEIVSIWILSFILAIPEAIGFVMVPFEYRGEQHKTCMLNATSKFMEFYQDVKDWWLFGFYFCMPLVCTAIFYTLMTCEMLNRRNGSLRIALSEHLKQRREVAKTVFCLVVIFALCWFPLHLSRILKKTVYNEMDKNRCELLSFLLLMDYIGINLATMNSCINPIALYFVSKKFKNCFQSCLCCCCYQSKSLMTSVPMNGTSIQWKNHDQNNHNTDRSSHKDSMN", "experiment": "Inhibitory activity against [125I]ET1 binding to human endothelin A receptor"}, "Mus musculus": {"system": "Mus musculus", "experiment": "In vivo efficacy of compound was determined in mouse after intravenous administration", "format": "functional"}, "Oryctolagus cuniculus": {"species": "Oryctolagus cuniculus", "experiment": "Antagonistic activity towards endothelin A receptor was evaluated using the rabbit iliac artery in presence of 3% human serum albumin", "format": "functional"}},
  "data": [
    {"smiles": "COCC(C)Cc1cc(OC)ccc1[C@@H]1c2nc(NC(C)C)ccc2[C@H](c2ccc3c(c2)OCO3)[C@H]1C(=O)O", "note": "(stereo in doubt; form 1)", "values": [
      {"measurement": "bioavailability", "setting": "[1]", "value": 70, "unit": "%"},
      {"measurement": "bioavailability", "setting": "[2]", "value": 70, "unit": "%"},
      {"measurement": "IC50", "setting": "[3]", "value": 48, "unit": "nM"},
      {"measurement": "IC50", "setting": "Endothelin-1 receptor", "value": 0.025, "unit": "nM"},
      {"measurement": "AD50", "setting": "Mus musculus", "value": 0.039, "unit": "MPK"},
      {"measurement": "PKB", "setting": "Oryctolagus cuniculus", "value": 8.33}
    ]}
  ]
}
